Measurements published in patent US20230240973A1, “CANNABIS SATIVA EXTRACTS AND THEIR USES” (LINNEA SA, priority 2020, published 2023).

Key:
HaCaT cells = test: MTT cytotoxicity assay on HaCaT cells; format: cell-based, human; details: 6 or 24 hours (FIG. 4)
Method: (§1) The cytotoxicity tests were performed using the MTT assay, capable of measuring the mitochondrial succinic dehydrogenase enzyme, whose activity indicates cell viability, on human keratinocytes or fibroblasts incubated with the Cannabis sativa extract according to example 2 and with pure CBD. The integrity of the morphology before and after 6 and 24 hour incubation was assessed by light microscopy.
(§2) HaCaT cells, spontaneously immortalized human keratinocyte line (Boukamp et al., 1988) and normal human dermal fibroblasts (HDF) were cultured in DMEM (Gibco, Life Technologies, Monza, Italy) supplemented with 10% heat inactivated fetal bovine serum (Euroclone SpA, Milan, Italy), L-glutamine (2 mM; Gibco, Life Technologies, Monza, Italy), penicillin (100 U/ml), and streptomycin ([…]; Gibco, Life Technologies, Monza, Italy), at 37° C. in a humidified atmosphere containing 5% CO2. Every 4 days, at 80-90% confluence, the cells were detached using 0.25% trypsin-EDTA (Gibco, Life Technologies, Monza, Italy), counted and placed in a new flask at a density of 1.5×10^6 cells per flask, to allow for growth. For the purpose of the present analyses, the cells were seeded in 24-well plates and incubated with the extract according to the present invention or pure CBD at increasing concentrations. […]

HDF cells = test: MTT cytotoxicity assay on HDF cells; format: cell-based, human; details: 6 or 24 hours (FIG. 3)
Method: as §1, §2

NF-kB = NF-kB driven transcription in TNF-α stimulated HaCaT cells; format: cell-based; details: human keratinocytes (HaCaT), read-out: IC50 of inhibition of NF-kB-driven transcription
Method: (§3) To evaluate the anti-inflammatory activity of the extract according to the present invention, the in vitro effect after exposure to pro-inflammatory stimuli on the expression levels of factors known to be involved in inflammatory processes was evaluated.
The nuclear transcription factor NF-kB is activated by pro-inflammatory stimuli and activates the transcription of genes that amplify the inflammatory process, such as MMP-9, cytokines and growth factors such as VEGF.

IL-8 [1] = test: IL-8 secretion in TNF-α stimulated HaCaT cells; format: cell-based; details: human keratinocytes (HaCaT), TNF-α 10 ng/ml
Method: as §3
(§4) In particular, the following were chosen as inflammation markers: • IL-8, a cytokine secreted by keratinocytes and fibroblasts following inflammation and particularly involved in skin diseases such as psoriasis; • MMP-9, a metalloprotease which degrades the extracellular matrix and which is activated following chronic skin inflammations such as dermatitis and psoriasis; • VEGF, the release of which by keratinocytes leads to the formation of the classic psoriatic plaques in patients suffering from this pathology.

VEGF = VEGF secretion in TNF-α stimulated HaCaT cells; format: cell-based; details: human keratinocytes (HaCaT), TNF-α 10 ng/ml
Method: as §3, §4

MMP-9 [2] = test: MMP-9 secretion in TNF-α stimulated HaCaT cells; format: cell-based; details: human keratinocytes (HaCaT), TNF-α 10 ng/ml
Method: as §3, §4

IL-8 [3] = test: IL-8 release in TNF-α stimulated HDF cells; format: cell-based; details: human fibroblasts (HDF)
Description: (§5) FIG. 7: effect evaluated on TNF-α stimulated HDF cells (A) on transcription induced by NF-kB and on release of (B) IL8, (C) MMP-9 following exposure to the indicated doses of the composition according to the present invention and, for comparative purposes, (D) on NF-kB-induced transcription and (E) IL8, (F) MMP-9 release following exposure to pure CBD.
as §3, §4
(§6) FIG. 7 reports the results obtained in human fibroblasts.

MMP-9 [4] = test: MMP-9 release in TNF-α stimulated HDF cells; format: cell-based; details: human fibroblasts (HDF)
Description: as §5, §3, §4, §6

C=C(C)[C@@H]1CCC(C)=C[C@H]1c1c(O)cc(CCCCC)cc1O [CBD, cannabidiol]
concentrations showing cytotoxic effects (HaCaT cells): above 5 μM
concentrations showing cytotoxic effects (HDF cells): above 2.5 μM
IC50 (NF-kB): 2850 nM
effect on expression levels of IL-8 (IL-8 [1]): no effect
effect on expression levels of VEGF (VEGF): modest
effect on expression levels of MMP-9 (MMP-9 [2]): modest
effect on release of IL-8 (IL-8 [3]): no effect
effect on release of MMP-9 (MMP-9 [4]): no effect
